One data set has as its system HepG2 cells. In words: HepG2 cell inhibition (cytotoxicity) assay. Conditions: for IC50: Homo sapiens. It counts as cell-based. The method, then:
For cytotoxicity assays, HepG2 cells (ATCC HB-8065) were grown in DMEM supplemented with 4 mM L-glutamine (Gibco #11966-025) with either 4.5 g/L D-glucose or 1.8 g/L galactose as carbon source. Cells were trypsinized, resuspended in the respective medium (DMEM/glutamine/glucose or DMEM/glutamine/galactose) to 4×10^5 cells/mL and 50 μL/well transferred to flat-bottom white opaque tissue culture plates (Falcon #353296) containing 50 μL/well of the respective medium with test compound. Compound concentrations were two-fold dilutions ranging from 50 μM to 0.049 μM as well as the drug-free DMSO-only control. All concentrations were tested in duplicate for each carbon source. After 24 h incubation at 5% CO2, 37° C., 10 μL/well of Celltiter-Glo reagent (Promega #G9241) was added and luminescence recorded after 20 min incubation in the dark.

The subject of data set [1] is P. falciparum. Kind of data set: Growth inhibition against P. falciparum. It counts as cell-based. Conditions: Plasmodium falciparum.
Data set [2] can be described thus: In vivo exposure study in mice. Also on record: species or system Swiss Webster mice. The method, then:
We designed a compound exposure study to determine plasma concentration of 12a under similar conditions to the efficacy study.
Animal care and all procedures were conducted at Charles River Laboratories (Wilmington, Mass.) and performed in accordance with the National Institutes of Health Guide for the Care and Use of Laboratory Animals and approved by the institutional animal care and use committee. […] The suspension was administered to unfasted female Swiss Weber mice (n=3) at 20 mg/kg i.p. Plasma samples (10 μL) were removed at 0.25, 0.5, 1, 2, 4, 6 and 8 h and stored at −80° C. Plasma samples were added to ice cold acetonitrile containing the internal standard, glafenine, as appropriate to bring samples into the standard curve range (50-10,000 ng/ml), then centrifuged for 5 minutes at 3200 rpm and the supernatant transferred to a 96-well sample plate for analysis by liquid chromatography-tandem mass spectrometry. The MRM transitions for glafenine and 12a were m/z: 370.9>296.9 and 180.075>119.9, respectively. A Synergi 4 μm Hydro-RP column (250×4.6 mm, 80 Å) was used for chromatographic separation. Mobile phases were 0.1% formic acid in water and acetonitrile with a flow rate of 1.2 mL/min. The starting phase was 0% acetonitrile for 3 minutes, increased to 60% acetonitrile over 6 minutes. Peak areas were integrated using Analyst Software (AB Sciex, Foster City, Calif.).

For data set [3], the system named is P. falciparum had1 mutant strain. It counts as cell-based.
A short description of data set [4]: Metabolic stability in mouse liver microsomes. It counts as in vitro ADME. Conditions: pH 7.4; mouse liver microsomes, compound 1 μM, 37° C.; read-out: Metabolic stability MLM (t1/2). As to the method: (§1) In this protocol, the metabolic stability of compounds at 1 μM was determined in mouse liver microsomes (MLM) and mouse plasma. For microsomal stability each test compound was incubated in an aqueous reaction mixture consisting of 0.25 […], 1.2 mM NADPH, 3.3 mM MgCl2, and 100 mM potassium phosphate buffer (pH 7.4). For plasma stability each test compound was incubated in mouse plasma (VWR). After incubation at 37° C. a 50 μL aliquot of the reaction was transferred to 200 μL ice cold acetonitrile containing internal standard (Enalapril, 100 ng/mL). The quenched reaction mixtures were centrifuged at 3200 rpm for 5 min, and 100 μL of the supernatant were transferred to 96-well plate and analyzed by LC-MS/MS using an Applied Biosystems-Sciex API 4000. Analyte/internal standard peak area ratios were used to evaluate stability. […] An Amour C18 column (2.1×30 mm, 5 μm; Analytical Sales and Services, Pompton Plains, N.J.) was used for chromatographic separation. Mobile phases were 0.1% formic acid, 1 mM triethylamine in water and acetonitrile with a flow rate of 0.35 mL/min. The starting phase was 0% acetonitrile increased to 100% acetonitrile over 3 minutes. Peak areas were integrated using Analyst Software (AB Sciex, Foster City, Calif.).
A general note: Liver microsomes are vesicles of endoplasmic reticulum, rich in cytochrome P450 enzymes.

A short description of the next data set: in vitro. It counts as in vitro ADME. The settings on record: mouse plasma, compound 1 μM, 37° C.; read-out: Plasma stability (t1/2). The method, then: as §1
Data set [5] concerns the target T1, P. falciparum DXR (Plasmodium falciparum, UniProt Q8IKG4).
T1 sequence (Q8IKG4 73-488): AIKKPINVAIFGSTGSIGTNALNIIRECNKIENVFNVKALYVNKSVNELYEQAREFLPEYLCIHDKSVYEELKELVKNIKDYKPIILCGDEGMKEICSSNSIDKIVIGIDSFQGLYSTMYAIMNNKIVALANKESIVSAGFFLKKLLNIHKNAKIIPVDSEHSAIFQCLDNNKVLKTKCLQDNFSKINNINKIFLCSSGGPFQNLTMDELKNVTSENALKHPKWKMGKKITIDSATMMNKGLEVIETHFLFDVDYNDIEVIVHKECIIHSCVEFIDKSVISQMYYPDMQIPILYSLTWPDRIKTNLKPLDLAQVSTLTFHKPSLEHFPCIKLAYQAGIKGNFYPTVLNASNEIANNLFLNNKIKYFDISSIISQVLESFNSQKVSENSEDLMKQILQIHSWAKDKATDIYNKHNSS
Kind of data set: Inhibition of P. falciparum DXR enzyme. It counts as biochemical.

For another data set, the system named is Mtb. Kind of data set: Mtb growth inhibition (MIC99) in 7H9 and GAST-Fe media. The settings on record: Mycobacterium tuberculosis. It counts as cell-based, M. tuberculosis. As to the method: Selected analogs were tested for the growth inhibition against P. falciparum and Mtb in both rich media (7H9) and minimal media (GAST-Fe) following reported procedures.

In another data set the target is Mtb DXR (Mycobacterium tuberculosis, UniProt P9WNS1). Kind of data set: Inhibition of Mtb DXR enzyme. It counts as biochemical, M. tuberculosis. Conditions: percent remaining enzyme activity at 100 μM compound. The method, then:
Phosphonic acid salts and prodrugs were evaluated as inhibitors of DXR from Mtb and P. falciparum and the results are shown in Table 6. Initially, the percent remaining enzyme activity was studied using a treatment of each compound at a single concentration of 100 μM. […] In general, the compounds display greater inhibition of DXR from P. falciparum compared with activity against the Mtb homolog.

The target in data set [6] is T1, P. falciparum DXR. Conditions: background; read-out: P. falciparum DXR IC50; cited from earlier work.
Data set [7] deals with P. falciparum. Conditions: earlier work / reference drug; read-out: P. falciparum growth IC50; cited from earlier work.
[8] abbreviates: minimal media (GAST-Fe), read-out: Mtb MIC99 Gast/Fe.
[9] abbreviates: rich media (7H9), read-out: Mtb MIC99 7H9.
Where [10] appears, read: Table 6, growth inhibition, read-out: P.f. IC50.
Where [11] appears, read: Table 6, N-acyl analogs, read-out: Pf Dxr IC50.

Structures are written as SMILES. Values joined by “and” are separate entries in the source; they are usually repeats but may differ in a detail not shown here. Equal values may be shown once. Read-outs that look alike come from different tables or passages of the source. Some results are limits rather than exact numbers.

Results on 7 molecules are retold here after US11098072B2, “Alkenyl and beta-substituted phosphonates as antimicrobial agents” (The George Washington University, priority 2017, dated 2021).

Chain of Mtb DXR (P9WNS1 whole entry): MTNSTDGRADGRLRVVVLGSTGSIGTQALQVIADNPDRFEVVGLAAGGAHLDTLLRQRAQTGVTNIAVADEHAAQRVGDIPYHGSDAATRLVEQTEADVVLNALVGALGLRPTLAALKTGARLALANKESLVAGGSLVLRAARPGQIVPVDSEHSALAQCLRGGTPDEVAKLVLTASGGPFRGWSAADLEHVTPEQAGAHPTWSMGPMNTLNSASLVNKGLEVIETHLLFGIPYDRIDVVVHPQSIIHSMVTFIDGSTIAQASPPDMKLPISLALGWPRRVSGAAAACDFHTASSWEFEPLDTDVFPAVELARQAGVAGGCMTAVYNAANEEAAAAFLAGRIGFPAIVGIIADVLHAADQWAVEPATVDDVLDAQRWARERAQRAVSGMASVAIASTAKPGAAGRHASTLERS

One may read the IC50 as the concentration that gives 50% inhibition. With `O=CN(O)C/C=C/P(=O)([O-])O.[Na+]` [Compound 12a, Sodium hydrogen [(1E)-3-(N-hydroxyformamido)prop-1-en-1-yl]phosphonate], in the data set on HepG2 cells (HepG2 IC50/P.falciparum IC50), the “SI^Pf Selectivity Index for P. falciparum” value is recorded as 2632. Further, the IC50 in the data set on HepG2 cells (HepG2, read-out: HepG2 IC50) was over 50000 nM; with P. falciparum [1] (read-out: P. falciparum growth IC50) it was 19 nM; in the data set with P. falciparum [1] (read-out: Pf IC50), 19 nM; at P. falciparum DXR [5] (read-out: P. falciparum DXR IC50) it was 92 nM. Also, in data set [2] (after 18a 20 mg/kg i.p.), the “plasma concentration at 8 h relative to Pf IC50 of 18a in vitro” value is reported as “approximately 200 fold”. The concentration at 8 h in [2] (female, Swiss Webster, mouse, in vivo, 20 mg/kg, read-out: plasma concentration of 12a at 8 h) is 485 ng/mL and 2.8 µM. Further, in data set [3] (mutant supplied with wild-type copy of HAD1), the “sensitivity in had1+HAD1-GFP strain” value is given as “restored”. For the same molecule, the “resistance of had1 parasites compared with wild-type 3D7” value in data set [3] (shift of IC50 curve) is recorded as 3.4 fold. The half-life at 1 μM in data set [4] was over 1 h; in the data set “in vitro” it was over 2 h.
For the molecule `O=C(c1ccccc1)N(O)C/C=C/P(=O)([O-])O.[Na+]` [Compound 32a, Sodium hydrogen [(1E)-3-(N-hydroxy-1-phenylformamido)prop-1-en-1-yl]phosphonate], the IC50 in the data set on HepG2 cells (HepG2, Table 6, cytotoxicity, read-out: HepG2 IC50) was over 50000 nM; in the data set on P. falciparum [1] (setting [10]) it was 0.103 µg/mL; at P. falciparum DXR [5] (setting [11]) it was 110 nM and 106 nM. The MIC99 in the data set with Mtb (setting [8]) was 25 µg/mL; in the data set on Mtb (setting [9]) it was over 50 µg/mL. On Mtb DXR, the “Mtb Dxr (% Residue)” value is listed as “(36.87) %”. Moreover, in data set [3] (in words), the “resistance of had1 parasites compared with wild-type” value is listed as “more resistant”.
With `O=C(Cc1ccccc1)N(O)C/C=C/P(=O)([O-])O.[Na+]` [Compound 32b, Sodium hydrogen [(1E)-3-(N-hydroxy-2-phenylacetamido)prop-1-en-1-yl]phosphonate], in the data set with Mtb (setting [9]), the MIC99 is over 100 µg/mL. For the same molecule, the IC50 was found to be 0.137 µg/mL with P. falciparum [1] (setting [10]) and 170 nM on P. falciparum DXR [5] (setting [11]). At Mtb DXR, the “Mtb Dxr (% Residue)” value is on record as “(33.6) %”.
Take `O=C(CCc1ccccc1)N(O)C/C=C/P(=O)([O-])O.[Na+]` [Compound 32c, Sodium hydrogen [(1E)-3-(N-hydroxy-3-phenylpropanamido)prop-1-en-1-yl]phosphonate]: the MIC99 with Mtb (setting [8]) and in the data set on Mtb (setting [9]) was over 100 µg/mL each time. In addition, the IC50 with P. falciparum [1] (setting [10]) is 3.3 µg/mL; at P. falciparum DXR [5] (setting [11]), 1340 nM. For the same molecule, on Mtb DXR, the “Mtb Dxr (% Residue)” value is recorded as “(62.3) %”.
As for `O=C(CCCc1ccccc1)N(O)C/C=C/P(=O)([O-])O.[Na+]` [Compound 32d, Sodium hydrogen [(1E)-3-(N-hydroxy-4-phenylbutanamido)prop-1-en-1-yl]phosphonate], the MIC99 in the data set with Mtb (setting [8]) and with Mtb (setting [9]) was over 100 µg/mL in each case. Moreover, the figures for the IC50 with P. falciparum [1] (setting [10]) and on P. falciparum DXR [5] (setting [11]) were 1.6 µg/mL and 898 nM, respectively. Besides, the “Mtb Dxr (% Residue)” value at Mtb DXR is recorded as “(29.2) %”.
For `CC(=O)N(O)CCCP(=O)(O)O` [FR900098], the IC50 at P. falciparum DXR [6] was 24 nM.
In the case of `C[C@@H]1CC[C@H]2[C@@H](C)C(=O)O[C@@H]3O[C@@]4(C)CC[C@@H]1[C@]32OO4` [artemisinin], the IC50 in the data set on P. falciparum [7] was 10.4 nM.
